Data: US20110166123A1, “NOVEL COMPOSITIONS AND METHODS OF USE” (priority 2008, published 2011)
pEC50: −log10 of the molar value. Values joined by “and” are separate entries in the source; they are usually repeats but may differ in a detail not shown here. Identical values can stand only once. Marks after values point to notes of the source that are not given here.

What was measured:
[1] = tested on: human immunodeficiency virus type 1 (HIV-1); experiment: microbe, parasite or virus in culture; assay type: cell-based; settings: Human immunodeficiency virus 1, HeLa, 48 h, HIV-1 luciferase reporter, HeLa cells, 48 hours after infection
[2] = Microsomal incubation (Method 1), human; assay type: in vitro ADME; settings: human liver microsomes, compound 10 μM, 1 mg protein/mL, NADPH 1 mM, 60 minutes at 37° C.
Procedure: (§1) Compound (10 μM) was incubated with rat, dog, cynomolgus monkey, and human liver microsomes (1 mg protein/mL) in a final volume of 1 mL in 2-mL Eppendorf tubes. The mixture containing enzymes, potassium phosphate buffer (100 mM, pH 7.4), and the compound was pre-incubated at 37° C. for 3 min. The reaction was initiated by the addition of NADPH (final concentration of 1 mM) and incubated for 60 minutes at 37° C. The reaction was terminated by the addition of 1 mL of acetonitrile. After centrifugation at 12000 rpm for 3 minutes, the supernatant was subjected to 15 minutes of concentration (N2 flow, 32° C.). The resulting final extract was transferred to clean vials and analyzed by HPLC.

[3] = Microsomal incubation (Method 1), dog; assay type: in vitro ADME; settings: dog liver microsomes; compound 10 μM, 1 mg protein/mL, NADPH 1 mM, 60 minutes at 37° C.
Procedure: as §1

[4] = Microsomal incubation (Method 1), monkey; assay type: in vitro ADME; settings: cynomolgus monkey liver microsomes; compound 10 μM, 1 mg protein/mL, NADPH 1 mM, 60 minutes at 37° C.
Procedure: as §1

[5] = Microsomal incubation (Method 1), rat; assay type: in vitro ADME; settings: rat liver microsomes; compound 10 μM, 1 mg protein/mL, NADPH 1 mM, 60 minutes at 37° C.
Procedure: as §1

[6] = Hepatocytes incubation (Method 1), human; assay type: in vitro ADME; settings: compound 10 μM, 37° C., 2 hrs
Procedure: (§2) Cryopreserved hepatocytes were thawed in a water bath at 37° C. and transferred to a 50-mL tube containing 45 mL of pre-warmed incubation medium (In VitroGRO HT medium). The tube was inverted 3 times to ensure resuspension of hepatocytes and centrifuged at 50 g at room temperature for 5 minutes. The supernatant was decanted without disturbing the pellet. The pellet of hepatocytes was resuspended in 1 mL of William's E medium and the viable cell counting was determined by the tryptan blue exclusion method.
(§3) The William's E medium was added to the suspension of the hepatocytes pellet to make a final density of 2 million cells/mL. Stock solution of the compound was prepared at the concentration of 1 mM and diluted to 10 μM with William's E medium. The culture plate was incubated at 37° C. under 5% carbon dioxide and 95% air atmosphere for 2 hrs. The metabolic reaction was terminated by transferring the contents of the well into a centrifuge tube containing 1 mL of 0.1% TFAA acetonitrile solution and then vortexing. After centrifugation, the supernatant was subjected to 15 minute of concentration (N2 flow, 32° C.). The resulted final extract was transferred to clean vials for HPLC analysis.

[7] = Hepatocytes incubation (Method 1), monkey; assay type: in vitro ADME; settings: compound 10 μM, 37° C., 2 hrs
Procedure: as §2, §3

[8] = Hepatocytes incubation (Method 1), rat; assay type: in vitro ADME; settings: compound 10 μM, 37° C., 2 hrs
Procedure: as §2, §3

[9] = Hepatocyte stability (Example 36), rat; settings: rat hepatocytes 1 million cells/mL, 37° C., 4 hours, LC-MS/MS
[10] = Hepatocyte stability (Example 36), human; settings: human hepatocytes 1 million cells/mL, 37° C., 4 hours, LC-MS/MS
[11] = CYP3A4 activity 3800 (pmol/mg protein)

Row | SMILES | pEC50 [1] | % Remaining, Dog, Microsome [3] | % Remaining, Monkey, Microsome [4] | % Remaining, Rat, Microsome [5] | % Remaining (rat) [9] | % Remaining (human) [10] | also measured
1 | COc1nc2c(cc1Cc1cccc(Cl)c1F)c(=O)c(C(=O)O)cn2[C@H](CO)C(C)C [Example 1A, 6-(3-Chloro-2-fluoro-benzyl)-1-((S)-1-hydroxymethyl-2-methyl-propyl)-7-methoxy-4-oxo-1,4-dihydro-[1,8]naphthyridine-3-carboxylic acid] | > 8.00 | 102% | 66.3% | 38.1% |  |  | % Remaining, Human, Microsome [2, 11]: 101% and 96.1%; % Remaining, Human, Microsome ([2]; CYP3A4 activity 7800 (pmol/mg protein)): 83.5%; % Remaining, Human, Hepatocyte [6]: 89.6%; % Remaining, Monkey, Hepatocyte [7]: 72.3%; % Remaining, Rat, Hepatocyte [8]: 66.9%
2 | COc1nc2c(cc1NCc1c(F)cc(F)cc1F)c(=O)c(C(=O)O)cn2[C@H](CO)C(C)C [Example 20AA, (S)-1-(1-hydroxy-3-methylbutan-2-yl)-7-methoxy-4-oxo-6-(2,4,6-trifluorobenzylamino)-1,4-dihydro-1,8-naphthyridine-3-carboxylic acid] | > 8.00 |  |  |  | 43% | 75% | 
3 | COc1nc2c(cc1NCc1c(F)cc(F)cc1F)c(=O)c(C(=O)O)cn2[C@H](CO)C(C)(C)C [Example 20NN, (S)-1-(1-hydroxy-3,3-dimethylbutan-2-yl)-7-methoxy-4-oxo-6-(2,4,6-trifluorobenzylamino)-1,4-dihydro-1,8-naphthyridine-3-carboxylic acid] | > 8.00 |  |  |  | 46% | 61% | 
4 | COc1ccc(COc2cc3c(=O)c(C(=O)O)cn([C@H](CO)C(C)(C)C)c3cc2OC)cc1 [Example 29E, (S)-1-(1-hydroxy-3,3-dimethylbutan-2-yl)-7-methoxy-6-(4-methoxybenzyloxy)-4-oxo-1,4-dihydroquinoline-3-carboxylic acid] | < 7.00 |  |  |  |  |  | 
5 | COc1cc2c(cc1Oc1c(F)cc(F)cc1F)c(=O)c(C(=O)O)cn2[C@H](CO)C(C)(C)C [Example 29F] | < 7.00 |  |  |  |  |  | 
6 | COc1cc2c(cc1Oc1ccc(C(F)(F)F)cc1N)c(=O)c(C(=O)O)cn2[C@H](CO)C(C)(C)C [Example 29G] | < 7.00 |  |  |  |  |  | 
7 | COc1cc2c(cc1Cc1cccc(Cl)c1F)c(=O)c(C(=O)O)cn2[C@H](CO)C(C)C [Example 30A, reference compound] |  | 83.8 NA % | 4.1 NA % | 6.7 NA % | 29% | 54% | % Remaining, Human, Microsome [2, 11]: 40.5 (3800)* NA %
8 | Cc1nnc(C(=O)NC(C)(C)c2nc(C(=O)NCc3ccc(F)cc3)c(O)c(=O)n2C)o1 [Raltegravir, raltegravir, reference compound] |  | 91.8% | 94.7% | 105% |  |  | % Remaining, Human, Hepatocyte [6]: 32.4%; % Remaining, Monkey, Hepatocyte [7]: 20.0%; % Remaining, Rat, Hepatocyte [8]: 43.3%
